By IC50 is commonly meant the concentration that gives 50% inhibition.

Where two headings read alike, the source gives them in different places.

For assay [1], the target named is T1, interaction between glucokinase (GK) and glucokinase regulatory protein (GKRP) (Homo sapiens, UniProt Q14397).
T1 sequence (Q14397 1-625): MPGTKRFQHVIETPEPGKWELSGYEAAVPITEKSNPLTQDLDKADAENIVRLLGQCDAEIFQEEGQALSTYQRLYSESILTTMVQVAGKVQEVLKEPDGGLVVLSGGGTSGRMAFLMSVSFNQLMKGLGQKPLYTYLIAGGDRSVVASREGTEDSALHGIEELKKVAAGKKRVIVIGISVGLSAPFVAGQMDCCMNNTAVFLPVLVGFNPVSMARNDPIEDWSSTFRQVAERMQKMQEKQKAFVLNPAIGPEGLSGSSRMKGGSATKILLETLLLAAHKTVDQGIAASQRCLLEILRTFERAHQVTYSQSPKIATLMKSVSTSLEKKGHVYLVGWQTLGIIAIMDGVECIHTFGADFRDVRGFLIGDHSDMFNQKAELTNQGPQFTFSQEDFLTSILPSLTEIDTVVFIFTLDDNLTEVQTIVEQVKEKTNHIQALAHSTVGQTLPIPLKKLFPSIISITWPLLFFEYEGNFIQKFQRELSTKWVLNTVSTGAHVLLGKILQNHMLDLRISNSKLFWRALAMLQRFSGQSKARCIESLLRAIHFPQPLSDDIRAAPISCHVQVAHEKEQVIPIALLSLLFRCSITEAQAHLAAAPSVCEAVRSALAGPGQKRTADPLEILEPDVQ
Kind of assay: biochemical. The format is binding. As for the experimental part: GK-GKRP Binding Assay Protocol
This assay is used to directly measure the interaction between glucokinase (GK) and glucokinase regulatory protein (GKRP). Begin by preparing the following solutions. Assay Buffer: 20 mM Tris, pH 7.5/0.05% BSA/1 mM DTT/1 μM sorbitol-6-phosphate. […] Combine the following reagents in a white 96-well half area plate. Pipette 14 μl of the diluted avi-tagged GKRP into each well. Add 1 μl of compound to be tested and incubate at room temperature for 20 minutes. After 20 minutes, add 5 μl of assay buffer containing 6 nM GK-fluorescein. […] Incubate in a dark room for 2 hours at room temperature. After 2 hours read the plate using an Envision plate reader (Perkin Elmer, Waltham Mass.).

For assay [2], the target named is T2, GKRP (Glucokinase Regulatory Protein) with human His-hepatic GK (Homo sapiens, UniProt Q14397).
T2 sequence (Q14397 1-625): T1 sequence (Q14397 1-625)
The assay is described as follows: biochemical. The method, then:
GKRP LC MS/MS-2 Biochemical Assay
This assay is used to directly measure the formation of ^13C-glucose-6-phosphate from ^13C-glucose by LC MS/MS. Begin by preparing the following solutions: Compound Buffer (CB): 50 mM Tris, pH 7.5/4 mM MgCl2/6% DMSO/fresh 10 mM DTT from 1M frozen stock. Enzyme Buffer (EB): 50 mM Tris, pH 7.5/4 mM MgCl2/6% DMSO/fresh 0.1% BSA/fresh 0.01% Brij-35 (10% BSA and 1% Brij-35 stock). GK (Glucokinase) Working Stock (5×): Dilute human His-hepatic GK to 30 nM in EB buffer. […] After 30 minutes add 10 μl of GK Working Stock (5×). Re-seal the plate and incubate for another 30 minutes at room temperature while mixing. After the second 30 minutes, stop the reaction by the addition of 50 μl of 100% acetonitrile, seal, and mix for 5-10 minutes. Run 10 μl of this sample through the LC MS/MS (API 3200, Applied Biosystems, Carlsbad, Calif.).

The mark [3] stands for this setting: avi-tagged GKRP, GK-fluorescein, AlphaScreen beads, read-out: GK-GKRP IC50 (Binding).
[4] abbreviates: 13C-glucose-6-phosphate formation, 280 nM GKRP (10×), 30 nM GK (5×), read-out: GK-GKRP EC50 (LC MS/MS-2).

On to `C[C@H]1CN(S(=O)(=O)c2ccc(N)s2)CCN1c1ccc(C(O)(C(F)(F)F)C(F)(F)F)cc1` [Example 149, 2-(4-((2S)-4-((5-amino-2-thiophenyl)sulfonyl)-2-methyl-1-piperazinyl)phenyl)-1,1,1,3,3,3-hexafluoro-2-propanol], for which, in assay [1] (setting [3]), the IC50 turned out to be 450 nM. For the same molecule, the EC50 in assay [2] (setting [4]) was determined as 109 nM.

As for `CC(O)(c1ccc(N2CCN(S(=O)(=O)c3cccs3)C[C@@H]2CN2CCOC[C@H]2CO)cc1)C(F)(F)F` (single isomer, unassigned) [Example 110 Peak #1], the 50% inhibitory concentration (IC50) in assay [1] (GK-GKRP IC50 (Binding)) was determined as 101 nM. Moreover, the EC50 in assay [2] (GK-GKRP EC50 (LC MS/MS-2)) is 156 nM.

On to `C[C@H]1COCCN1C[C@H]1CN(S(=O)(=O)c2ccc(N)nc2)CCN1c1ccc(C(C)(O)C(F)(F)F)cc1` (mixture of isomers) [Example 125, 2-(4-((2S)-4-((6-amino-3-pyridinyl)sulfonyl)-2-(((3S)-3-methyl-4-morpholinyl)methyl)-1-piperazinyl)phenyl)-1,1,1-trifluoro-2-propanol], for which the IC50 in assay [1] (setting [3]) was 3 nM. Also, the EC50 in assay [2] (setting [4]) turned out to be 20 nM.

For the molecule `CC(C)N(C[C@H]1CN(S(=O)(=O)c2cccs2)CCN1c1ccc(C(C)(O)C(F)(F)F)cc1)S(C)(=O)=O` (mixture of isomers) [Example 195, N-(1-methylethyl)-N-(((2R)-4-(2-thiophenylsulfonyl)-1-(4-(2,2,2-trifluoro-1-hydroxy-1-methylethyl)phenyl)-2-piperazinyl)methyl)methanesulfonamide], the IC50 in assay [1] (setting [3]) was 28 nM. Further, the EC50 in assay [2] (setting [4]) was found to be 57 nM.

`CC(O)(c1cnc(N2CCN(S(=O)(=O)c3ccc(N)s3)C[C@@H]2CC2CCOCC2)nc1)C(F)(F)F` (mixture of isomers) [Example 135, 2-(2-((2S)-4-((5-amino-2-thiophenyl)sulfonyl)-2-(tetrahydro-2H-pyran-4-ylmethyl)-1-piperazinyl)-5-pyrimidinyl)-1,1,1-trifluoro-2-propanol]: in assay [1] (setting [3]), the IC50 came to 55 nM. Further, the EC50 in assay [2] (setting [4]) was 108 nM.

Take `CC(O)(c1ccc(N2CCN(S(=O)(=O)c3cccs3)C[C@@H]2CN2C3COCC2C(O)C3)cc1)C(F)(F)F` (single isomer, unassigned) [Example 78 Peak #2]: the IC50 in assay [1] (setting [3]) was found to be 49 nM. For the same molecule, the EC50 in assay [2] (setting [4]) came to 60 nM.

In the case of `CC(C)C1C(=O)NCCN1C[C@H]1CN(S(=O)(=O)c2cccs2)CCN1c1ccc(C(C)(O)C(F)(F)F)cc1` (single isomer, unassigned) [Example 181 Peak #1], in assay [1] (setting [3]), the IC50 was determined as 43 nM. Also, in assay [2] (setting [4]), the EC50 was 63 nM.

In the case of `CC(O)(c1ccc(N2CCN(S(=O)(=O)c3cccs3)C[C@@H]2CN2[C@@H]3COC[C@H]2CC(=O)C3)cc1)C(F)(F)F` (single isomer, unassigned) [Example 106 Peak#2], the half-inhibitory concentration (IC50) in assay [1] (setting [3]) amounted to 61 nM. For the same molecule, the EC50 in assay [2] (setting [4]) amounted to 142 nM.

Regarding `CN(C)C(=O)CC1COCCN1C[C@H]1CN(S(=O)(=O)c2cccs2)CCN1c1ccc(C(C)(O)C(F)(F)F)cc1` (mixture of isomers) [Example 114, N,N-dimethyl-2-(4-(((2S)-4-(2-thiophenylsulfonyl)-1-(4-(2,2,2-trifluoro-1-hydroxy-1-methylethyl)phenyl)-2-piperazinyl)methyl)-3-morpholinyl)acetamide], the IC50 in assay [1] (setting [3]) stood at 90 nM. Further, the EC50 in assay [2] (setting [4]) is 124 nM.

On to `CC(C)CS(=O)(=O)N(C[C@H]1CN(S(=O)(=O)c2cccs2)CCN1c1ccc(C(C)(O)C(F)(F)F)cc1)c1ccccc1` (mixture of isomers) [Example 211, 2-methyl-N-phenyl-N-(((2R)-4-(2-thiophenylsulfonyl)-1-(4-(2,2,2-trifluoro-1-hydroxy-1-methylethyl)phenyl)-2-piperazinyl)methyl)-1-propanesulfonamide], for which the IC50 in assay [1] (setting [3]) came to 6 nM. In assay [2] (setting [4]), the EC50 stood at 20 nM.

As for `Nc1ccc(S(=O)(=O)N2CCN(c3ccc(C(O)(C(F)(F)F)C(F)(F)F)cc3)CC2)s1` [Example 88, 2-(4-(4-((5-amino-2-thiophenyl)sulfonyl)-1-piperazinyl)phenyl)-1,1,1,3,3,3-hexafluoro-2-propanol], the IC50 in assay [1] (setting [3]) turned out to be 302 nM. Moreover, the EC50 in assay [2] (setting [4]) was 150 nM.

As for `CC(=O)N(C[C@H]1CN(S(=O)(=O)c2cccs2)CCN1c1ccc(C(C)(O)C(F)(F)F)cc1)c1ccccc1` (mixture of isomers) [Example 224, N-phenyl-N-(((2S)-4-(2-thiophenylsulfonyl)-1-(4-(2,2,2-trifluoro-1-hydroxy-1-methylethyl)phenyl)-2-piperazinyl)methyl)acetamide], in assay [1] (setting [3]), the IC50 was found to be 8 nM. Also, in assay [2] (setting [4]), the EC50 came out at 27 nM.

As to `Nc1ccc(S(=O)(=O)N2CCN(c3ncc(C(O)(C(F)(F)F)C(F)(F)F)cn3)[C@@H](CN3C4COCC3CC(=O)C4)C2)s1` [Example 98 nonan-7-one, 9-(((2S)-4-((5-amino-2-thiophenyl)sulfonyl)-1-(5-(2,2,2-trifluoro-1-hydroxy-1-(trifluoromethyl)ethyl)-2-pyrimidinyl)-2-piperazinyl)methyl)-3-oxa-9-azabicyclo[3.3.1]nonan-7-one], in assay [1] (GK-GKRP IC50 (Binding), avi-tagged GKRP, GK-fluorescein, AlphaScreen beads), the half-inhibitory concentration (IC50) came to 16 nM. In assay [2] (GK-GKRP EC50 (LC MS/MS-2), 13C-glucose-6-phosphate formation, 280 nM GKRP (10×), 30 nM GK (5×)), this molecule registered an EC50 of 40 nM.

Take `CC(O)C#Cc1cc(C(O)(C(F)(F)F)C(F)(F)F)ccc1N1CCN(S(=O)(=O)c2cccs2)CC1` (racemic) [Example 151, 4-(2-(4-(2-thiophenylsulfonyl)-1-piperazinyl)-5-(2,2,2-trifluoro-1-hydroxy-1-(trifluoromethyl)ethyl)phenyl)-3-butyn-2-ol]: the IC50 in assay [1] (setting [3]) is 396 nM. In addition, the EC50 in assay [2] (setting [4]) was 994 nM.

Turning to `C[C@H]1CN(S(=O)(=O)c2ccccc2N)CCN1c1ccc(C(O)(C(F)(F)F)C(F)(F)F)cc1` [Example 168, 2-(4-((2S)-4-((2-aminophenyl)sulfonyl)-2-methyl-1-piperazinyl)phenyl)-1,1,1,3,3,3-hexafluoro-2-propanol], the IC50 in assay [1] (setting [3]) is 660 nM. For the same molecule, the EC50 in assay [2] (setting [4]) came to 533 nM.

Consider `CC(O)(c1ccc(N2CCN(S(=O)(=O)c3cccs3)C[C@@H]2CN(CC2CCC2)S(C)(=O)=O)cc1)C(F)(F)F` (mixture of isomers) [Example 218, N-(cyclobutylmethyl)-N-(((2S)-4-(2-thiophenylsulfonyl)-1-(4-(2,2,2-trifluoro-1-hydroxy-1-methylethyl)phenyl)-2-piperazinyl)methyl)methanesulfonamide], for which the IC50 in assay [1] (setting [3]) stood at 24 nM. Moreover, the EC50 in assay [2] (setting [4]) was determined as 17 nM.

Turning to `Cn1cnc(COC[C@H]2CN(S(=O)(=O)c3cccs3)CCN2c2ccc(C(C)(O)C(F)(F)F)cc2)c1` (single isomer, unassigned) [Example 119 Peak #2], the half-maximal inhibitory concentration (IC50) in assay [1] (setting [3]) was 979 nM. Besides, the EC50 in assay [2] (setting [4]) came to 206 nM.

For the molecule `COCC#Cc1cc(C(O)(C(F)(F)F)C(F)(F)F)ccc1N1CCN(S(=O)(=O)c2cccs2)CC1` [Example 153, 1,1,1,3,3,3-hexafluoro-2-(3-(3-methoxyprop-1-YNYL)-4-(4-(thiophen-2-ylsulfonyl)piperazin-1-yl)phenyl)propan-2-ol], the IC50 in assay [1] (setting [3]) worked out at 363 nM. Also, in assay [2] (setting [4]), the EC50 stood at 675 nM.

Regarding `Nc1ccc(S(=O)(=O)N2CCN(c3ncc(C(O)(C(F)(F)F)C(F)(F)F)cn3)[C@@H](CN3C4COCC3CC(O)C4)C2)cn1` (stereo partly drawn) [Example 99 nonan-7-ol (endo), 9-(((2S)-4-((6-amino-3-pyridinyl)sulfonyl)-1-(5-(2,2,2-trifluoro-1-hydroxy-1-(trifluoromethyl)ethyl)-2-pyrimidinyl)-2-piperazinyl)methyl)-3-oxa-9-azabicyclo[3.3.1]nonan-7-ol (endo)], the IC50 in assay [1] (setting [3]) was found to be 3 nM. The EC50 in assay [2] (setting [4]) turned out to be 25 nM.

The values are drawn from patent US8431563B2 (priority 2010, dated 2013).
